Data set [1] concerns the target T1, SaHPPK (Staphylococcus aureus, UniProt A0A0H3JXR3). The data set is described as follows: biochemical. The format is binding.
Data set [2] addresses T1, SaHPPK. The data set is described as follows: Surface plasmon resonance (SPR) with biotinylated SaHPPK on NeutrAvidin chip. The format is binding. On the technique in general: SPR reads the build-up and loss of mass on a sensor chip optically.
Data set [3] has as its target T1, SaHPPK. The data set is described as follows: KinaseGlo luminescent biochemical assay of HPPK activity. For orientation: In Kinase-Glo more light means more ATP remaining.
The subject of data set [4] is SaHPPK. The data set is described as follows: Differential scanning fluorimetry (DSF) assay for ligand binding. The conditions noted are these: for increase in unfolding temperature (Tm): saturating ligand. The arrangement: species or system Staphylococcus aureus. The protocol:
A 96-well plate containing solutions of 2–5 µM SaHPPK, 10× Sypro orange dye and 500 µM of test compound in buffer (50 mM HEPES (pH 8.0), 1% sorbitol, 2.0 mM DTT, 10 mM MgCl2) was heated from […] at a rate of 1.0 K min^−1. The fluorescence intensity was measured with excitation/emission wavelengths of 583/610 nm. Tm and ΔTm values were determined from the melting curves obtained.
(In DSF a fluorescence change marks the thermal transition of the protein.)

The test system of a further data set is E. coli. The data set can be described thus: E. coli cell-based growth inhibition assays. The conditions noted are these: data not shown.
The nature of data set [5]: Solubility estimated from ITC experiments. It is filed as physicochemical. The settings on record: ITC buffer, estimated assuming 1:1 binding stoichiometry.
Data set [6] concerns the target T1, SaHPPK. It is filed as binding.
For another data set, the system named is B. anthracis DHPS. The settings on record: co-crystallisation; cited from earlier work.
On the set-up of data set [7]: method as in PMID 17511860. The settings on record: in vivo mouse model; cited from earlier work.
In the next data set the target is EcHPPK. The conditions noted are these: cited from earlier work.
For a further data set, the system named is E. coli HPPK. The conditions noted are these: read-out: Km for the E. coli enzyme; different assays; cited from earlier work.
[8] abbreviates: ITC, 298 K, in the presence of 1 mM AMPCPP.
Setting [9] is: ITC, 298 K, ligand alone, read-out: K d ITC.
[10] abbreviates: SPR steady-state, 293 K, ligand alone, read-out: K d SPR.
Setting [11] is: in the absence of Mg2+, data not shown.
Setting [12] is: SPR, 1:1 kinetic interaction model.
Where [13] appears, read: fluorescence-based methods, in the presence of Mg2+, read-out: binding affinity (K d) of EcHPPK.
Setting [14] is: read-out: dissociation constant for EcHPPK.

In brackets after ≈: the same amount, converted by molar mass. Several values for one entry are separate records, joined by “and”; a condition that tells them apart may be missing. Equal entries are not always repeated. Where two headings read alike, the source gives them in different places.

T1 sequence (A0A0H3JXR3 entry or part of it): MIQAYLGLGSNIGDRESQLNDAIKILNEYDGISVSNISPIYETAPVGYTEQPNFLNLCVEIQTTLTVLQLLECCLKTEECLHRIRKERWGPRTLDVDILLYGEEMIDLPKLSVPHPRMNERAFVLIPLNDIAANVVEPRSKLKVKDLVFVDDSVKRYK

By IC50 is commonly meant the concentration at which inhibition is half-maximal. The solubility is the concentration that dissolves in the medium under given conditions. On to `Nc1nc2nc(S)[nH]c2c(=O)[nH]1` [8-mercaptoguanine], for which the “N (binding stoichiometry)” value turned out to be 0.96±0.09 on SaHPPK [1] (setting [8]) and 1.00±0.06 on SaHPPK [1] (ITC, 298 K, ligand alone). The TΔS at SaHPPK [1] (setting [8]) was -10.4 ± 1.5 kcal/mol; at SaHPPK [1] (ITC, 298 K, ligand alone), -12.9 ± 3.5 kcal/mol. The ΔG on SaHPPK [1] (setting [8]) was -6.8 ± 0.1 kcal/mol; on SaHPPK [1] (ITC, 298 K, ligand alone), -6.7 ± 0.2 kcal/mol. Moreover, the ΔH on SaHPPK [1] (setting [8]) is -17.2 ± 1.4 kcal/mol; at SaHPPK [1] (ITC, 298 K, ligand alone), -19.6 ± 3.4 kcal/mol. The Kd on SaHPPK [1] (ITC, 298 K, in the presence of 1 mM AMPCPP, read-out: K d ITC) was 11.3 ± 2.3 µM; at SaHPPK [1] (setting [9]) it was 12.8 ± 3.4 µM; at SaHPPK [1] (absence of cofactor, read-out: equilibrium dissociation constant Kd, summary value from ITC and SPR), ~13 µM and ~12 µM; on SaHPPK [2] (SPR steady-state, 293 K, in the presence of 5 mM ATP, read-out: K d SPR) it was 8.1 ± 1.6 µM; on SaHPPK [2] (setting [10]), 10.8 ± 0.4 µM. Further, on SaHPPK [1] (K d ∼13 µM over 12 heavy atoms), the ligand efficiency is given as 2.3 kJ/heavy atom. Besides, the “times more tightly bound than HMDP” value on SaHPPK [2] is about 10 times. Also, the concentration for half-maximal inhibition (IC50) at SaHPPK [3] (HMDP 0.3 µM, ATP 0.2 µM, read-out: IC50 for inhibition of SaHPPK) was 41 µM and ~41 µM. Further, the “increase in Tm compared to apo” value in the data set with SaHPPK [4] (500 µM ligand, 5 µM enzyme) stood at 3.4 °C. Besides, the growth inhibition result in the data set with E. coli is reported as “did not observe growth inhibition”. The solubility in data set [5] is about 300 µM (≈ 55 µg/mL). Moreover, the “K d indicated by NMR exchange regime” value on SaHPPK [6] is listed as “low µM range”. In addition, the “binding and inhibition of B. anthracis DHPS” value with B. anthracis DHPS is reported as “bind to, but not inhibit”. Also, the “antiviral activity and toxicity” value in data set [7] is reported as “Antiviral activity,without significant toxicity”.

`Nc1ncnc2c1ncn2[C@@H]1O[C@H](COP(=O)(O)OP(=O)(O)O)[C@@H](O)[C@H]1O` [ADP]: the Kd at SaHPPK [2] (setting [10]) amounted to 760 ± 16 µM.

With `Nc1ncnc2c1ncn2C1OC(COP(=O)(O)CP(=O)(O)OP(=O)(O)O)C(O)C1O` (stereo not drawn) [AMPCPP, α,β-methylene adenosine 5′-triphosphate], the “fold tighter binding than ATP” value at SaHPPK [1] (ITC affinity ratio) was “approximately 10 fold”. On SaHPPK [1] (ITC, 298 K, ligand alone), the “N (binding stoichiometry)” value came out at 1.06±0.12, the TΔS amounted to 1.3 ± 1.0 kcal/mol, the ΔG was -7.5 ± 0.2 kcal/mol and the ΔH is -6.3 ± 1.0 kcal/mol. The Kd on SaHPPK [1] (setting [9]) was 3.1 ± 1.2 µM. Besides, the “binding by ITC” value at SaHPPK [1] (setting [11]) is listed as “no significant binding”. The Kd on SaHPPK [2] (setting [10]) is 7.7 ± 0.4 µM. Further, at SaHPPK [2] (setting [12]), the k a is on record as 8.8±1.3×10^4 M^−1 s^−1 and the k d was determined as 0.5 ± 0.1 s⁻¹. At SaHPPK [2] (SPR, from k d/k a ratio, read-out: K d from kinetic interaction model), the Kd came to 5.4 ± 0.3 µM. Further, the “increase in unfolding temperature (Tm)” value in the data set on SaHPPK [4] is 11 °C. For the same compound, the Kd on EcHPPK (setting [13]) was 0.08 to 0.45 µM. For the same compound, on EcHPPK (setting [14]), the Kd is 0.45 µM.

`Nc1ncnc2c1ncn2[C@@H]1O[C@H](COP(=O)(O)O)[C@@H](O)[C@H]1O` [AMP]: the Kd at SaHPPK [2] (setting [10]) came to 4900 ± 1100 µM.

What is called Km is the concentration of substrate that gives half-maximal velocity. On to `Nc1ncnc2c1ncn2[C@@H]1O[C@H](COP(=O)(O)OP(=O)(O)OP(=O)(O)O)[C@@H](O)[C@H]1O` [ATP], for which, at SaHPPK [1] (ITC, 298 K, ligand alone), the “N (binding stoichiometry)” value is 0.98±0.11, the TΔS is -0.3 ± 0.5 kcal/mol, the ΔG is -6.2 ± 0.1 kcal/mol and the ΔH was -6.5 ± 0.4 kcal/mol. For the same compound, at SaHPPK [1] (setting [9]), the Kd was found to be 31 ± 4.5 µM. The “binding by ITC” value at SaHPPK [1] (setting [11]) was “no significant binding”. At SaHPPK [2] (setting [10]), the Kd is ~45 µM and 45 µM. The Km at SaHPPK [3] (KinaseGlo assay, read-out: Km app) worked out at 10.8 ± 2.5 µM. For the same compound, the “increase in unfolding temperature (Tm)” value in the data set with SaHPPK [4] was 6 °C. At EcHPPK (setting [13]), the Kd is 2.6 to 4.5 µM. Moreover, on EcHPPK (setting [14]), the Kd is 2.6 µM.

Regarding `Nc1nc2c(c(=O)[nH]1)N=C(CO)CN2` [HMDP, 6-hydroxymethyl-7,8-dihydropterin], at SaHPPK [1] (setting [8]), the “N (binding stoichiometry)” value is given as 1.23±0.15, the TΔS was -3.1 ± 0.9 kcal/mol, the ΔG is -7.4 ± 0.2 kcal/mol and the ΔH is -10.5 ± 1.0 kcal/mol. Moreover, the Kd at SaHPPK [1] (K d ITC, ITC, 298 K, in the presence of 1 mM AMPCPP) was ~4 µM and 4 µM. Further, the “binding by ITC” value on SaHPPK [1] (in the presence of the inhibitor 8-mercaptoguanine) is listed as “could not be detected”. Also, on SaHPPK [2] (K d SPR, SPR steady-state, 293 K, in the presence of AMPCPP), the Kd is 3.6 ± 0.3 µM. Also, the Kd on SaHPPK [2] (K d SPR, SPR steady-state, 293 K, ligand alone) was ~100 µM and 100 µM. Moreover, on EcHPPK (in the presence of Mg2+ and AMPCPP, read-out: binding affinity of EcHPPK), the Kd is 0.036 to 0.17 µM. The Km with E. coli HPPK is 0.7 to 1.6 µM.

Turning to `Nc1nc2nc[nH]c2c(=O)[nH]1` [guanine], the “affinity by SPR” value on SaHPPK [2] (data not shown) is reported as “undetectable”.

In the case of Mg-GTP, the “affinity of EcHPPK, fold less than for Mg-ATP” value with EcHPPK was 260 fold.

The values are drawn from article PMC3261883, “Structure of S. aureus HPPK and the Discovery of a New Substrate Site Inhibitor” (PLoS ONE, 2012).
